# Laboratory results reported in patent publication US9409952B2, “Peptide-compound cyclization method” (Chugai Seiyaku Kabushiki Kaisha, priority 2011, dated 2016).
# Like-named read-outs stand apart in the source and are kept apart here. Starred links: 1 amine or outer side, 2 acyl side, 3 side chain; linkers in the order of their positions; H or OH if unused. Positions of bridges follow the written chain, without caps; N, C: chain ends. Non-standard residues stand in square brackets, D forms with d. Residues, ends and D or L forms follow the SMILES beside them. *: point of attachment. Phe(4-CF3) = N[C@@H](Cc1ccc(C(F)(F)F)cc1)C(=O)O; NMePhe(3-Cl) = CN[C@@H](Cc1cccc(Cl)c1)C(=O)O; NEtPhe = CCN[C@@H](Cc1ccccc1)C(=O)O; NMeF = CN[C@@H](Cc1ccccc1)C(=O)O; NMeGABA = CN(CCCC(=O)[*:2])[*:1]; NMeI = CC[C@H](C)[C@H](NC)C(=O)O; NMeβAla = CN(CCC(=O)[*:2])[*:1]; NMeL = CN[C@@H](CC(C)C)C(=O)O; NMeV = CN[C@H](C(=O)O)C(C)C; NMeA = CN[C@@H](C)C(=O)O; Piperidide = C1CCN(*)CC1; dNMeA = CN[C@H](C)C(=O)O; β3hA = C[C@H](N)CC(=O)O; Sar = CNCC(=O)O; tBu = CC(C)(C)*
# How the values were obtained:
# [1] = Metabolic stability in human hepatic microsome; format: in vitro ADME; details: microsomes
# [2] = PAMPA (parallel artificial membrane permeability assay); format: in vitro ADME; details: PAMPA
# Method in brief: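 Artificial membrane was 10% (w/v) egg lecithin plus 0.5% (w/v) cholesterol in dodecane on a PVDF filter. A 10 mM DMSO stock was added at 0.5% (v/v) to donor buffer (50 mM MOPSO, pH 6.5, 5.0% glycocholic acid). After 18 h at 37 °C, LC/MS or LC/UV gave donor and acceptor levels for Pe.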
# [3] = pH 7.4, human hepatic microsome, NADPH(+), read-out: CL NADPH(+)
# [4] = membrane permeation rate (Pe), 50 mM MOPSO buffer pH 6.5 with 5.0% glycocholic acid, 37° C., 18 hours, read-out: iPAMPA Pe
SMILES,"microsomal CLint at 1 uM [1, 3]","Papp at 18 hours, 50 µM [2, 4]","microsomal CLint at 1 uM ([1]; human, pH 7.4, CL NADPH(+))","Papp at 18 hours, 50 µM ([2]; pH 6.5)"
CC(C)C[C@H]1C(=O)N[C@@H](Cc2ccccc2)C(=O)N[C@@H](COC(C)(C)C)C(=O)N(C)[C@@H](CC(C)C)C(=O)N(C)[C@@H](CC(C)C)C(=O)N[C@@H]([C@@H](C)O)C(=O)N[C@H](C(=O)N2CCCCC2)CC(=O)N(C)CCC(=O)N(C)[C@@H](Cc2ccccc2)C(=O)NCC(=O)N1C [DP-426] ([NMeβAla][NMeF]G[NMeL]FS(tBu)[NMeL][NMeL]TD-Piperidide; lactam N-10),546 µL/min/mg,360 nm/s,,
CC[C@H](C)[C@@H]1NC(=O)[C@H](CC(C)C)N(C)C(=O)[C@H](CC(C)C)N(C)C(=O)[C@H](C)NC(=O)[C@H](CC(C)C)N(C)C(=O)[C@H](Cc2ccc(C(F)(F)F)cc2)NC(=O)[C@H]([C@@H](C)O)NC(=O)[C@H](CC(C)C)N(C)C(=O)[C@H](CC(C)C)N(C)C(=O)[C@H](C)N(C)C(=O)C[C@H](C)NC1=O [DP-776] (cyclo(A[NMeL][NMeL]I[β3hA][NMeA][NMeL][NMeL]T[Phe(4-CF3)][NMeL])),,,44 µL/min/mg,180 nm/s
CC[C@H](C)[C@H]1C(=O)N(C)[C@@H](CC(C)C)C(=O)N[C@H](C(=O)N2CCCCC2)CC(=O)N(C)CC(=O)N[C@@H](CC(C)C)C(=O)N[C@@H]([C@@H](C)O)C(=O)N(C)CC(=O)N(CC)[C@@H](Cc2ccccc2)C(=O)N[C@@H](C)C(=O)N(C)[C@@H](Cc2ccccc2)C(=O)N(C)[C@@H](CC(C)C)C(=O)N1C [DP-546] ([Sar]LT[Sar][NEtPhe]A[NMeF][NMeL][NMeI][NMeL]D-Piperidide; lactam N-11),34 µL/min/mg,410 nm/s,,
CC[C@H](C)[C@@H]1NC(=O)[C@H](Cc2ccccc2)N(C)C(=O)[C@H](CC(C)C)NC(=O)[C@H](CC(C)C)NC(=O)[C@H](Cc2ccccc2)NC(=O)[C@H](CC(C)C)NC(=O)[C@@H](C)NC(=O)C[C@@H](C(=O)N2CCCCC2)NC(=O)[C@H](Cc2ccccc2)NC(=O)[C@H]([C@@H](C)O)NC1=O [DP-115] ([dA]LFLL[NMeF]ITFD-Piperidide; lactam N-10),28 µL/min/mg,4.5 nm/s,,
CC(C)C[C@H]1C(=O)N[C@@H]([C@@H](C)O)C(=O)N(C)[C@@H](Cc2ccccc2)C(=O)N(C)[C@@H](CC(C)C)C(=O)NCC(=O)N(C)[C@@H](C(C)C)C(=O)N[C@@H](Cc2ccccc2)C(=O)N[C@H](C(=O)N(C)[C@@H](Cc2ccccc2)C(=O)N[C@@H](C)C(=O)N2CCCCC2)CC(=O)N(C)[C@H](C)C(=O)N[C@@H](C(C)C)C(=O)N1C [DP-301] ([dNMeA]V[NMeL]T[NMeF][NMeL]G[NMeV]FD[NMeF]A-Piperidide; lactam N-10),,,184 µL/min/mg,150 nm/s
CC[C@H](C)[C@@H]1NC(=O)[C@H](CC(C)C)N(C)C(=O)[C@H](Cc2cccc(Cl)c2)N(C)C(=O)[C@@H](C(C)C)NC(=O)C[C@H](C)NC(=O)[C@H](CC(C)C)N(C)C(=O)[C@H](C)N(C)C(=O)[C@H]([C@@H](C)O)NC(=O)[C@H](Cc2cccc(Cl)c2)N(C)C(=O)[C@H](C)N(C)C1=O [DP-812] (cyclo(I[NMeA][NMePhe(3-Cl)]T[NMeA][NMeL][β3hA][dV][NMePhe(3-Cl)][NMeL])),222 µL/min/mg,340 nm/s,,
CC(C)C[C@H]1C(=O)N[C@@H](COC(C)(C)C)C(=O)N(C)[C@@H](Cc2ccccc2)C(=O)N(C)[C@@H](CC(C)C)C(=O)N[C@H](C(=O)N2CCCCC2)CC(=O)N(C)CCC(=O)N[C@@H]([C@@H](C)O)C(=O)N1C [DP-746] ([NMeβAla]T[NMeL]S(tBu)[NMeF][NMeL]D-Piperidide; lactam N-7),318 µL/min/mg,470 nm/s,,
CC(C)C[C@H]1C(=O)N(C)[C@@H](C(C)C)C(=O)N(C)[C@@H](C)C(=O)N[C@H](C(=O)N(C)[C@@H](Cc2ccccc2)C(=O)N(C)[C@@H](Cc2ccccc2)C(=O)N[C@@H](C)C(=O)N2CCCCC2)CC(=O)N(C)CCC(=O)N(C)CC(=O)N[C@@H]([C@@H](C)O)C(=O)N[C@@H](Cc2ccccc2)C(=O)N(C)[C@@H](C(C)C)C(=O)N[C@@H](C)C(=O)N1C [DP-497] ([NMeβAla][Sar]TF[NMeV]A[NMeL][NMeV][NMeA]D[NMeF][NMeF]A-Piperidide; lactam N-10),58 µL/min/mg,93 nm/s,,
CC(C)C[C@H]1C(=O)N[C@@H](COC(C)(C)C)C(=O)N[C@@H](C)CC(=O)N[C@H](C)C(=O)N(C)[C@@H](C)C(=O)N(C)[C@@H](Cc2ccccc2)C(=O)N(C)[C@@H](C)C(=O)N[C@@H]([C@@H](C)O)C(=O)N(C)[C@@H](C)C(=O)N1C [DP-786] (cyclo([NMeA][NMeF][NMeA]T[NMeA][NMeL]S(tBu)[β3hA][dA])),14 µL/min/mg,59 nm/s,,
CC(C)C[C@H]1C(=O)N(C)[C@@H](CC(C)C)C(=O)N[C@@H]([C@@H](C)O)C(=O)N(C)[C@@H](Cc2ccccc2)C(=O)N(C)[C@@H](CC(C)C)C(=O)N[C@H](C(=O)N(C)[C@@H](Cc2ccccc2)C(=O)N(C)[C@@H](Cc2ccccc2)C(=O)N[C@@H](C)C(=O)N2CCCCC2)CC(=O)N(C)[C@H](C)C(=O)N(C)[C@@H](Cc2ccccc2)C(=O)N(C)[C@@H](CC(C)C)C(=O)N[C@@H](C)C(=O)N1C [DP-207] ([dNMeA][NMeF][NMeL]A[NMeL][NMeL]T[NMeF][NMeL]D[NMeF][NMeF]A-Piperidide; lactam N-10),12 µL/min/mg,1.6 nm/s,,
CC(C)C[C@@H]1NC(=O)CN(C)C(=O)[C@H](CC(C)C)NC(=O)[C@H](C)NC(=O)[C@H](CC(C)C)NC(=O)[C@H](CC(C)C)NC(=O)[C@H](C)N(C)C(=O)C[C@@H](C(=O)N2CCCCC2)NC(=O)[C@H]([C@@H](C)O)NC(=O)[C@H](Cc2ccccc2)NC(=O)[C@H](CC(C)C)NC1=O [DP-420] ([NMeA]LLAL[Sar]LLFTD-Piperidide; lactam N-11),69 µL/min/mg,100 nm/s,,
CC[C@H](C)[C@@H]1NC(=O)[C@H](CC(C)C)N(C)C(=O)[C@H](Cc2ccccc2)N(C)C(=O)[C@@H](C(C)C)NC(=O)C[C@H](C)NC(=O)[C@H](CC(C)C)N(C)C(=O)[C@H](C)N(C)C(=O)[C@H]([C@@H](C)O)NC(=O)[C@H](Cc2cccc(Cl)c2)N(C)C(=O)[C@H](CC(C)C)N(C)C1=O [DP-782] (cyclo(I[NMeL][NMePhe(3-Cl)]T[NMeA][NMeL][β3hA][dV][NMeF][NMeL])),,,127 µL/min/mg,100 nm/s
CC(C)C[C@H]1C(=O)N(C)[C@@H](Cc2ccccc2)C(=O)NCC(=O)N[C@H](C(=O)N2CCCCC2)CC(=O)N(C)CCCC(=O)N[C@@H]([C@@H](C)O)C(=O)N(C)[C@@H](C)C(=O)N(C)[C@@H](Cc2ccccc2)C(=O)N[C@@H](COC(C)(C)C)C(=O)N1C [DP-129] ([NMeGABA]T[NMeA][NMeF]S(tBu)[NMeL][NMeF]GD-Piperidide; lactam N-9),120 µL/min/mg,170 nm/s,,
CC[C@H](C)[C@H]1C(=O)N[C@@H](Cc2ccccc2)C(=O)N[C@H](C(=O)N2CCCCC2)CC(=O)N[C@H](C)C(=O)N[C@@H](C)C(=O)N(C)[C@@H](CC(C)C)C(=O)N(C)[C@@H](CC(C)C)C(=O)N(C)[C@@H](Cc2ccccc2)C(=O)N[C@@H]([C@@H](C)O)C(=O)N(C)[C@@H](C)C(=O)N(C)[C@@H](C(C)C)C(=O)N1C [DP-229] ([dA]A[NMeL][NMeL][NMeF]T[NMeA][NMeV][NMeI]FD-Piperidide; lactam N-11),100 µL/min/mg,330 nm/s,,
CC(C)C[C@H]1C(=O)N(C)[C@@H](C)C(=O)N(C)[C@@H](Cc2ccccc2)C(=O)N[C@@H]([C@@H](C)O)C(=O)N(C)[C@@H](C)C(=O)N(C)[C@@H](Cc2ccccc2)C(=O)N(C)[C@@H](C)C(=O)N[C@H](C(=O)N(C)[C@@H](Cc2ccccc2)C(=O)N[C@@H](C)C(=O)N2CCCCC2)CC(=O)N(C)CCC(=O)N(C)[C@@H](C)C(=O)N[C@@H](C)C(=O)N1C [DP-346] ([NMeβAla][NMeA]A[NMeL][NMeA][NMeF]T[NMeA][NMeF][NMeA]D[NMeF]A-Piperidide; lactam N-11),7 µL/min/mg,40 nm/s,,
CC[C@H](C)[C@H](NC(=O)[C@H](CC(C)C)N(C)C(=O)[C@H](Cc1ccccc1)NC(=O)[C@H](Cc1ccccc1)N(C)C(=O)[C@@H]1CC(=O)N(C)[C@@H](C)C(=O)N[C@@H](C(C)C)C(=O)N[C@@H](CC(C)C)C(=O)N(C)[C@@H](Cc2ccccc2)C(=O)N[C@@H](CC(C)C)C(=O)N[C@@H]([C@@H](C)O)C(=O)N1)C(=O)N1CCCCC1 [DP-921] ([NMeA]VL[NMeF]LTD[NMeF]F[NMeL]I-Piperidide; lactam N-7),88 µL/min/mg,3.4 nm/s,,
CC(C)C[C@H]1C(=O)N(C)[C@@H](Cc2ccccc2)C(=O)NCC(=O)N[C@H](C(=O)N2CCCCC2)CC(=O)N(C)CCC(=O)N[C@@H]([C@@H](C)O)C(=O)N(C)[C@@H](C)C(=O)N[C@@H](COC(C)(C)C)C(=O)N(C)[C@@H](Cc2ccccc2)C(=O)N1C [DP-80] ([NMeβAla]T[NMeA]S(tBu)[NMeF][NMeL][NMeF]GD-Piperidide; lactam N-9),,,43 µL/min/mg,120 nm/s
CC(C)C[C@H]1C(=O)N(C)[C@@H](C)C(=O)N[C@@H]([C@@H](C)O)C(=O)N(C)[C@@H](C)C(=O)N(C)[C@@H](C(C)C)C(=O)N[C@@H](COC(C)(C)C)C(=O)N[C@H](C(=O)N2CCCCC2)CC(=O)N(C)[C@H](C)C(=O)N(C)[C@@H](Cc2ccccc2)C(=O)N[C@@H](C)C(=O)N(C)[C@@H](C)C(=O)N[C@@H](Cc2ccccc2)C(=O)N1C [DP-409] ([dNMeA][NMeF]A[NMeA]F[NMeL][NMeA]T[NMeA][NMeV]S(tBu)D-Piperidide; lactam N-12),,,28 µL/min/mg,130 nm/s
